The text below walks through data of patent publication US8563602B2, “Method of improving animal tissue quality by supplementing the animal diet with oleic acid and selected tocols” (E.I. du Pont de Nemours and Co., priority 2004, dated 2013).

Marks after values point to notes of the source that are not given here.

Assay [1] deals with swine. Put plainly: 2003 swine feed test: TBARS content of uncooked and cooked ground pork. It counts as in vivo. Conditions: recalculated from Table 10: oleic acid level High or tocotrienol addition 225 ppm. The text has this:
(§1) Applicants assessed the effects of supplementing the animal diet with oleic acid and tocotrienol on pork meat quality in an experiment in which data from pigs fed one of four dietary treatments were compared. Seventy-two barrows (approximately 20 kg) were randomly placed in pens with water and feed provided ad libitum at the Pioneer Livestock Nutrition Center (PLNC) in Polk City, Iowa. Ad libitum swine feeding continued for 49 days (through Mar. 4, 2003) until the average weight reached 32 kg. A uniform group of 64 pigs was selected, and the pigs were randomly assigned to each of four treatments with 16 experimental units (individually housed pigs) per dietary treatment.
(§2) On Apr. 22, 2003 (Day 1 of the feed test) the feeders were emptied and the dietary treatments were commenced and continued until Jul. 14, 2003 (Day 83). Dietary treatments consisted of two levels of oleic acid (normal and high) with or without tocotrienol (0 or 225 ppm), as summarized below:
[…]. Cooked ground pork was measured for TBARS concentration at 0 hours and 24 hours after cooking.

Assay [2] relates to swine. Nature of the assay: 2003 swine feed test: ground pork visual color score on simulated retail display. To be noted: recalculated from Table 6: oleic acid level High or tocotrienol addition 225 ppm. The class given is in vivo.
From the text: as §1, §2
(§3) Samples of ground pork were packaged in PVC wrap and kept on simulated retail display for seven days. During that time trained panelists made a subjective determination of the overall color score and percent discoloration of the ground pork.
Overall color was graded on a scale of 1.0 to 5.0 as follows: 1.0=bright grayish-pink or reddish-pink (acceptable), 2.0=grayish-pink or reddish-pink (acceptable), 3.0=slightly dark pink/red/pink/tan(acceptable), 3.5=threshold of retail acceptability, 4.0=moderately tan/pinkish-red (unacceptable), and 5.0=dark tan or dark pinkish-red (unacceptable).

For assay [3], the system named is swine. Put plainly: 2003 swine feed test: belly thickness and flex. It counts as in vivo. Conditions: recalculated from Table 2: oleic acid level High or tocotrienol addition 225 ppm.
From the text: as §1, §2
In the normal or control (CO) diet, the total dietary content of oil was 5.5 wt % of the feed. The oil was a typical corn oil having an oleic acid content of 29.6 wt % of the fatty acid fraction. In the high-oleic acid (HO) diet, the total dietary content of oil was still 5.5 wt %, but the oil was high-oleic sunflower oil with an oleic acid content of 80.2 wt % of the fatty acid fraction. The high oleic sunflower oil was purchased from Cargill, Inc. All four experimental diets were formulated with soybean meal and corn flaking grits. The latter, being largely devoid of oil, were used in conjunction with the corn and high-oleic vegetable oils to achieve the desired dietary fatty acid content. […]
The pigs were slaughtered at an average weight of 120 kg on Jul. […] Following a 24 hour chill period, the carcasses were transferred to the University of Missouri processing lab, where weight yields were recorded and meat tissue was evaluated.
The right pork carcass side was fabricated into primal and sub-primal cuts and the bellies were evaluated for thickness, firmness and fatty acid profile.

In the next assay the test system is steers. Nature of the assay: 2004 cattle feed test: uncooked ribeye steak discoloration. It counts as in vivo. To be noted: recalculated from Table 16: oleic acid level High or tocotrienol addition 150 ppm. From the text:
Applicants assessed the effects of supplementing the animal diet with oleic acid and tocotrienol on beef quality in an experiment in which data from steers fed one of four dietary treatments were compared. The steers were blocked by weight (heavy or light) and assigned to eight outdoor group pens with five steers per pen. Pens were randomly assigned within each of the two weight blocks to four dietary treatments: (1) simulated oil-rich corn grain (coarse corn grits with corn oil added as 6% of the weight of the grits plus oil) (CO); (2) simulated oil-rich corn grain (coarse corn grits with a similar level of corn oil) with supplemental tocotrienol (CO+TT), (3) simulated high oleic acid corn grain (coarse corn grits with high oleic sunflower oil added as 6% of the weight of the grits plus oil) (HO); and (4) simulated high oleic acid corn grain (coarse corn grits with high oleic sunflower oil added as 6% of the weight of the grits plus oil) with supplemental tocotrienol (HO+TT); as summarized below:
The steers were fed their respective dietary supplements for 133 days starting Apr. 12, 2004 and ending Aug. 23, 2004. The cattle were loaded on Aug. 24, 2004 and transported to Emporia, Kans. for harvest at the IBP packing plant. Steaks and ground beef samples were evaluated for, among other things, color, shelf life (as measured by percent discoloration over time) and rancidity (as measured by TBARS concentration over time).
Ribeye steaks utilized for color evaluation were placed onto 17S foam trays with meat, fish and poultry pads (Dri-Loc AC-50) and wrapped with polyvinyl chloride (PVC) film. The steaks were placed under simulated retail display at 34+/−3 degree F. in open top cases programmed to defrost twice daily for seven days. During that time trained panelists made subjective determinations of the overall color score and percent discoloration of the ribeye steaks. […]
Percent discoloration was also determined subjectively. […]

The test system of assay [4] is swine. Nature of the assay: 2003 swine feed test: ground pork discoloration on simulated retail display. The class given is in vivo. Conditions: recalculated from Table 8: oleic acid level High or tocotrienol addition 225 ppm.
From the text: as §1, §2, §3
Percent discoloration was also determined subjectively. In the table that follows, a higher number indicates a greater percent discoloration: […]

Assay [5] concerns swine. Put plainly: 2003 swine feed test: belly adipose tissue fatty acid composition and iodine value. The class given is in vivo. Conditions: recalculated from Table 4: oleic acid level High or tocotrienol addition 225 ppm.
From the text: as §1, §2
In the normal or control (CO) diet, the total dietary content of oil was 5.5 wt % of the feed. The oil was a typical corn oil having an oleic acid content of 29.6 wt % of the fatty acid fraction. In the high-oleic acid (HO) diet, the total dietary content of oil was still 5.5 wt %, but the oil was high-oleic sunflower oil with an oleic acid content of 80.2 wt % of the fatty acid fraction. The high oleic sunflower oil was purchased from Cargill, Inc. All four experimental diets were formulated with soybean meal and corn flaking grits. The latter, being largely devoid of oil, were used in conjunction with the corn and high-oleic vegetable oils to achieve the desired dietary fatty acid content.
The tocotrienol used to supplement the (TT) and the (HO+TT) diets was obtained commercially from Fuji Chemical Industries (U.S.A.) Inc. of Robbinsville, N.J., and contained 7.5% alpha-, 12.3% gamma- and 3.0% delta-tocotrienol (a total tocotrienol content of 22.8%), as well as 7.2% alpha-tocopherol.
The fatty acid composition and iodine values in the pork belly adipose tissue was measured.

Assay [6] in a line: In vitro addition of gamma-tocopherol to ground pork: TBARS of cooked patties. To be noted: GT 100 ppm added in vitro to raw ground pork, HO = pork from swine fed high oleic diet. On the procedure:
Applicants assessed the effects of in vitro addition of gamma-tocopherol to ground pork from swine fed a diet supplemented with oleic acid in order to evaluate gamma tocopherol's value as an animal feed supplement when used in conjunction with oleic acid. Gamma-tocopherol was added to the raw (uncooked) ground pork from swine whose diet was not supplemented with oleic acid and swine whose diet was supplemented with oleic acid. Ground pork from pigs fed the respective treatments were formed into patties, cooked and refrigerated for two days in plastic pouches. Samples of the cooked patties were then submitted for TBARS (thiobarbituric acid reactive substances) determination at 0 hours and 24 hours following refrigeration.

On to `CCCCCCCC/C=C\CCCCCCCC(=O)O` [Oleic Acid, oleic acid], for which the “Ground pork oxidation (TBARS)” value is reported as 0.69^b mg malonaldehyde/kg sample in the assay with swine [1] (cooked, 0 hours); 1.73^b mg malonaldehyde/kg sample with swine [1] (cooked, 24 hours); 0.28 mg malonaldehyde/kg sample in the assay on swine [1] (uncooked, Day 0); 0.34 mg malonaldehyde/kg sample in the assay with swine [1] (uncooked, Day 4); 0.41 mg malonaldehyde/kg sample with swine [1] (uncooked, Day 7). The results for the “Ground pork visual color score” value in the assay on swine [2] (Day 3), in the assay with swine [2] (Day 4) and in the assay with swine [2] (Day 5) were 1.81, 2.67 and 4.38, respectively. Also, the Belly thickness in the assay with swine [3] is 35.6 mm. Besides, the Lateral flex with swine [3] is on record as 11.0^b. In addition, the Vertical flex in the assay with swine [3] is recorded as 18.7. In addition, the “Uncooked ribeye steak discoloration” value with steers (Day 3) is on record as 1.4; in the assay with steers (Day 5) it was 1.1^b; with steers (Day 7) it was 1.6. The Ground pork discoloration in the assay with swine [4] (Day 3) was 2.41; in the assay with swine [4] (Day 4), 2.84; in the assay with swine [4] (Day 5), 4.64. Besides, in the assay on swine [5], the “Iodine Value (IV)” value was 63.7^b. For the same compound, in the assay on swine [5], the “Monounsaturated Fatty Acid (MUFA)” value is listed as 55.55^b. For the same compound, in the assay with swine [5], the “Polyunsaturated Fatty Acids (PUFA)” value was 9.67^b.

As to `Cc1c(O)cc2c(c1C)O[C@](C)(CCC[C@H](C)CCC[C@H](C)CCCC(C)C)CC2` [GT, gamma-tocopherol], the results for the “TBARS content of cooked ground pork patties” value in assay [6] (0 hours following refrigeration) and in assay [6] (24 hours following refrigeration) were 0.746 mg malonaldehyde/kg sample and 1.24 mg malonaldehyde/kg sample, respectively.
